Where two headings read alike, the source gives them in different places.
Columns and labels:
[1] = target: T1, STING AQ: His-TVMV-S-hSTING(155-341)-G230A-R293Q (Homo sapiens, UniProt Q86WV6, G230A/H232R/R293Q); test: STING HTRF Binding Assay, STING AQ; settings: 20 nM His-tagged STING cytoplasmic domain, 40 nM fluorescein-labeled cGAMP analog probe, one hour; read-out: HTRF Binding Assays IC50 (μM) STING AQ
T1 construct: STING AQ: His-TVMV-S-hSTING(155-341)-G230A-R293Q
Procedure: (§1) A time resolved FRET-based competition binding assay was used to assess test article binding to STING WT and STING AQ. His-tagged STING cytoplasmic domain (WT or AQ) at a concentration of 20 nM was incubated with 2.5 nM Tb-labeled anti-His antibody, test compound, and fluorescein-labeled cGAMP analog probe (BioLog cat. no. C195) at a concentration of 200 nM (STING WT) or 40 nM (STING AQ) in PBS containing 0.005% Tween-20 and 0.1% BSA for one hour. Fluorescence at 495 nm and 520 nm was measured using an EnVision microplate reader to quantify FRET between Tb-labeled anti-His antibody and fluorescein-labeled probe. Background was defined as the signal obtained in the absence of STING protein, and background subtracted FRET ratios were normalized to the maximum signal obtained in the absence of test compound. These values were converted to a percent inhibition. Percent inhibition was determined for test compounds at 11 concentrations. The IC50, defined as the concentration of competing test compound needed to reduce specific binding of the probe by 50%, was calculated using the 4 parameter logistic equation to fit the data

[2] = target: T2, STING WT: His-TVMV-S-hSTING(155-341)-H232R (Homo sapiens, UniProt Q86WV6, H232R); test: STING HTRF Binding Assay, STING WT; settings: 20 nM His-tagged STING cytoplasmic domain, 200 nM fluorescein-labeled cGAMP analog probe, one hour; read-out: HTRF Binding Assays IC50 (μM) STING WT
T2 construct: STING WT: His-TVMV-S-hSTING(155-341)-H232R
T2 sequence (Q86WV6 with tags, fused parts or gaps H232R): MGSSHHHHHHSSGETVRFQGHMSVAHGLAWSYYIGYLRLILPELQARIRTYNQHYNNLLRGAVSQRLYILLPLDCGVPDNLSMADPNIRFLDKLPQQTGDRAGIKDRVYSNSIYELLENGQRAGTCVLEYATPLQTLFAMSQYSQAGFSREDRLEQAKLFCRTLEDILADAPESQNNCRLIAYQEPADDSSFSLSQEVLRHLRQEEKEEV
Procedure: as §1

[3] = system: NF-κB pathway in THP1-Dual STING reporter cells; test: STING THP1 Reporter Assay, NF-κB pathway (SEAP); format: cell-based, human; settings: 100% = 100 μM cGAMP
Excerpt: (§2) THP1-Dual™ cells were derived from the human THP-1 monocyte cell line by stable integration of two inducible reporter constructs. To this end, THP1-Dual™ cells allow the simultaneous study of the NF-κB pathway, by monitoring the activity of SEAP, and the IRF pathway by assessing the activity of a secreted luciferase (Lucia). Both reporter proteins are readily measurable in the cell culture supernatant when using QUANTI-Blue™, a SEAP detection reagent, and QUANTI-Luc™, a luciferase detection reagent.
(§3) THP1-Dual™ cells induce the activation of NF-κB in response to STING agonists. They also trigger the IRF pathway upon stimulation with STING agonists, such as cGAMP. Here, the THP-1-Dual cells were used to assess STING binders for function on the cellular level.
(§4) Serial dilutions of compounds in DMSO were added to low volume 384 well plates at 100 nl/well using an ECHO acoustic dispenser (Labcyte, model 550) to achieve final starting concentration of 100 μM in cell suspension. […] One column of the plate was reserved for treatment with cGAMP at 100 μM for 100% activation calculation and one column for no treatment (DMSO only) for baseline activation. Plates were then incubated in 37° C. incubator at 5% CO2 for 20 hours.
(§5) In the SEAP assay, 5 μl of 2× QuantiBlue (Invivogen, cat #Rep-qb2) is added to 384 well black plates seeded with THP1 cells and incubated at 37° C. for 2 hours. Plates were read on the Envision (Perkin Elmer) at 620 nm wavelength (OD620). In the luciferase assay, 5 μl of Quantiluc (Invivogen, Rep-qlc2) is added to white 384 well plates seeded with THP1 cells and read at 5 minutes on the Envision (Perkin Elmer) using a luminescence protocol (RLU). For both cell lines, 100% activation was determined by value (RLU) of THP-1 Dual STING cells stimulated with 100 μM cGAMP (Invivogen, cat #TLRL-NACGA23-5).

[4] = system: IRF pathway in THP1-Dual STING reporter cells; test: STING THP1 Reporter Assay, IRF pathway (secreted Lucia luciferase); format: cell-based, human; settings: 100% = 100 μM cGAMP
Excerpt: as §2, §3, §4, §5

[5] = Homo sapiens, THP1-Dual, 20 h, read-out: THP1 Reporter Assays EC50 (μM) NFkB, THP1-Dual cells, 10% human plasma, 20 hours, SEAP
[6] = Homo sapiens, THP1-Dual, 20 h, read-out: THP1 Reporter Assays EC50 (μM) IRF3, THP1-Dual cells, 10% human plasma, 20 hours, luciferase
[7] = THP1-Dual cells, 10% human plasma, 20 hours, SEAP, read-out: THP1 Reporter Assays EC50 (μM) NFkB
[8] = THP1-Dual cells, 10% human plasma, 20 hours, luciferase, read-out: THP1 Reporter Assays EC50 (μM) IRF3
[9] = Homo sapiens, THP1-Dual, 20 h, THP1-Dual cells, 10% human plasma, 20 hours, SEAP, read-out: THP1 Reporter Assays EC50 (μM) NFkB
[10] = Homo sapiens, THP1-Dual, 20 h, THP1-Dual cells, 10% human plasma, 20 hours, luciferase, read-out: THP1 Reporter Assays EC50 (μM) IRF3
[11] = read-out: THP1 Reporter Assays EC50 (μM) NFkB, THP1-Dual cells, 10% human plasma, 20 hours, SEAP
[12] = read-out: THP1 Reporter Assays EC50 (μM) IRF3, THP1-Dual cells, 10% human plasma, 20 hours, luciferase

T1 sequence (Q86WV6 with tags, fused parts or gaps G230A/H232R/R293Q): as the sequence (Q86WV6 with tags, fused parts or gaps H232R) above, with G99A, R162Q counted along it

| Compound | IC50 [1] | IC50 [2] | EC50 [3, 5] | EC50 [4, 6] | EC50 [3, 7] | EC50 [4, 8] | EC50 [3, 9] | EC50 [4, 10] | EC50 [3, 11] | EC50 [4, 12] |
| --- | --- | --- | --- | --- | --- | --- | --- | --- | --- | --- |
| Nc1ncnc2c1ncn2[C@@H]1O[C@@H]2COP(=O)(S)O[C@H]3[C@@H](O)[C@H](n4cnc5c(=O)[nH]c6nccn6c54)O[C@@H]3COP(=O)(S)O[C@H]2[C@H]1F (mixture of isomers) [Example 5, (1S,6R,8R,9R,10R,15R,17R,18R)-8-(6-amino-9H-purin-9-yl)-9-fluoro-18-hydroxy-17-{4-oxo-1H,4H,5H-imidazo[2,1-b]purin-1-yl}-3,12-disulfanyl-2,4,7,11,13,16-hexaoxa-3λ^5,12λ^5-diphosphatricyclo[13.3.0.0^6,10]octadecane-3,12-dione] | 0.001 µM | 0.004 µM | 1.35 µM | 0.49 µM |  |  |  |  |  |  |
| Nc1ncnc2c1ncn2[C@@H]1O[C@@H]2COP(=O)(S)O[C@H]3[C@@H](O)[C@H](n4cnc5c(=O)n6ccnc6[nH]c54)O[C@@H]3COP(=O)(S)O[C@H]2[C@H]1F (single isomer, unassigned) [Example 1-1] | 0.01 µM | 0.02 µM |  |  | 0.94 µM | 0.38 µM |  |  |  |  |
| Nc1ncnc2c1ncn2[C@@H]1O[C@@H]2COP(=O)(S)O[C@H]3[C@@H](O)[C@H](n4cnc5c(=O)n6ccnc6[nH]c54)O[C@@H]3COP(=O)(S)O[C@H]2[C@H]1F (single isomer, unassigned) [Example 1-2] | 0.01 µM | 0.07 µM |  |  | 5.35 µM | 2.69 µM |  |  |  |  |
| NC(=O)c1cccc2c1nnn2[C@@H]1O[C@@H]2COP(=O)(S)O[C@H]3[C@@H](F)[C@H](n4cnc5c(N)ncnc54)O[C@@H]3COP(=O)(S)O[C@H]2[C@H]1F (single isomer, unassigned) [Example 4-1] | 17.8 µM | > 100 µM |  |  | > 100 µM | > 100 µM |  |  |  |  |
| NC(=O)c1cccc2c1nnn2[C@@H]1O[C@@H]2COP(=O)(S)O[C@H]3[C@@H](F)[C@H](n4cnc5c(N)ncnc54)O[C@@H]3COP(=O)(S)O[C@H]2[C@H]1F (single isomer, unassigned) [Example 4-2] | 0.24 µM | 8.1 µM |  |  |  |  | > 100 µM | > 100 µM |  |  |
| NC(=O)c1cccc2c1nnn2[C@@H]1O[C@@H]2COP(=O)(S)O[C@H]3[C@@H](F)[C@H](n4cnc5c(N)ncnc54)O[C@@H]3COP(=O)(S)O[C@H]2[C@H]1F (single isomer, unassigned) [Example 4-3] | 0.39 µM | 12 µM |  |  | > 100 µM | > 100 µM |  |  |  |  |
| NC(=O)c1cccc2c1nnn2[C@@H]1O[C@@H]2COP(=O)(S)O[C@H]3[C@@H](F)[C@H](n4cnc5c(N)ncnc54)O[C@@H]3COP(=O)(S)O[C@H]2[C@H]1F (single isomer, unassigned) [Example 4-4] | 0.02 µM | 0.78 µM |  |  | 92.4 µM | 81.1 µM |  |  |  |  |
| NC(=O)c1cc([C@@H]2O[C@@H]3COP(=O)(S)O[C@H]4[C@@H](F)[C@H](n5cnc6c(N)ncnc65)O[C@@H]4COP(=O)(S)O[C@H]3[C@H]2O)[nH]n1 (single isomer, unassigned) [Example 6-1] | 1.32 µM | 5.58 µM |  |  |  |  | > 100 µM | > 100 µM |  |  |
| NC(=O)c1cc([C@@H]2O[C@@H]3COP(=O)(S)O[C@H]4[C@@H](F)[C@H](n5cnc6c(N)ncnc65)O[C@@H]4COP(=O)(S)O[C@H]3[C@H]2O)[nH]n1 (single isomer, unassigned) [Example 6-2] | 5.75 µM | 88.6 µM |  |  | > 100 µM | > 100 µM |  |  |  |  |
| NC(=O)c1cc([C@@H]2O[C@@H]3COP(=O)(S)O[C@H]4[C@@H](F)[C@H](n5cnc6c(N)ncnc65)O[C@@H]4COP(=O)(S)O[C@H]3[C@H]2O)[nH]n1 (single isomer, unassigned) [Example 6-3] | 16.2 µM | > 100 µM |  |  | > 100 µM | > 100 µM |  |  |  |  |
| NC(=O)c1cc([C@@H]2O[C@@H]3COP(=O)(S)O[C@H]4[C@@H](F)[C@H](n5cnc6c(N)ncnc65)O[C@@H]4COP(=O)(S)O[C@H]3[C@H]2O)[nH]n1 (single isomer, unassigned) [Example 6-4] | 0.19 µM | 3.03 µM |  |  | > 100 µM | > 100 µM |  |  |  |  |
| NC(=O)c1cccc2c1nnn2[C@@H]1O[C@@H]2COP(=O)(O)O[C@H]3[C@@H](F)[C@H](n4cnc5c(N)ncnc54)O[C@@H]3COP(=O)(S)O[C@H]2[C@H]1F (single isomer, unassigned) [Example 8-1] | 1.75 µM | 64.6 µM |  |  |  |  | > 100 µM | > 100 µM |  |  |
| NC(=O)c1cccc2c1nnn2[C@@H]1O[C@@H]2COP(=O)(O)O[C@H]3[C@@H](F)[C@H](n4cnc5c(N)ncnc54)O[C@@H]3COP(=O)(S)O[C@H]2[C@H]1F (single isomer, unassigned) [Example 8-2] | 0.07 µM | 2.23 µM |  |  | > 100 µM | > 100 µM |  |  |  |  |
| Nc1ncnc2c1ncn2[C@@H]1O[C@@H]2COP(=O)(S)O[C@H]3[C@@H](O)[C@H](n4cnc5c4ncn4ncnc54)O[C@@H]3COP(=O)(O)O[C@H]2[C@H]1F (single isomer, unassigned) [Example 10-1] | 0.04 µM | 2.5 µM |  |  |  |  |  |  | > 100 µM | > 100 µM |
| Nc1ncnc2c1ncn2[C@@H]1O[C@@H]2COP(=O)(S)O[C@H]3[C@@H](O)[C@H](n4cnc5c4ncn4ncnc54)O[C@@H]3COP(=O)(O)O[C@H]2[C@H]1F (single isomer, unassigned) [Example 10-2] |  | 0.05 µM |  |  |  |  |  |  | 8.99 µM | 3.69 µM |
| Nc1ncnc2c1ncn2[C@@H]1O[C@@H]2COP(O)(=S)O[C@H]3[C@@H](F)[C@H](n4cnc5c4ncn4ncnc54)O[C@@H]3COP(O)(=S)O[C@H]2[C@H]1F (single isomer, unassigned) [Example 12-1] | 0.04 µM | 0.56 µM |  | 8.2 µM |  |  | 65.9 µM |  |  |  |
| Nc1ncnc2c1ncn2[C@@H]1O[C@@H]2COP(=O)(O)O[C@H]3[C@@H](O)[C@H](n4cnc5c4ncn4ncnc54)O[C@@H]3COP(=O)(O)O[C@H]2[C@H]1F [Example 11, (1S,6R,8R,9R,10R,15R,17R,18R)-8-(6-amino-9H-purin-9-yl)-9-fluoro-3,12,18-trihydroxy-17-{3H-[1,2,4]triazolo[3,2-f]purin-3-yl}-2,4,7,11,13,16-hexaoxa-3λ^5,12λ^5-diphosphatricyclo[13.3.0.0^6,10]octadecane-3,12-dione] |  | 0.23 µM | 16 µM | 8.35 µM |  |  |  |  |  |  |

From patent US11660311B2, “Cyclic dinucleotides as anticancer agents” (priority 2017, dated 2023)
